The results in this text go back to patent US8889894B2, “Compounds for use in therapy” (Bangor University, priority 2008, dated 2014).

Series [1] has as its system alveolar macrophages. Description: Foaming of mycolic acid treated alveolar macrophages (ORO-stained lung sections). As to conditions: single intratracheal dose of liposomes carrying compound, a week earlier; compared with empty liposomes or liposomes containing compound 1; FIG. 2. The class given is in vivo, C57BL/6 mice. How it is done:
(§1) Briefly, the compounds were mixed with phosphatidylcholine (Sigma) in chloroform. The chloroform was evaporated and the lipids recovered in sterile saline. After ultrasound sonication and vortexing, samples of 25 μg mycolic acids/100 μl/mouse were administered intratracheally. A liposome control was prepared similarly, but without the addition of any mycolic acid compound.
Formation of cholesterol-rich foamy alveolar macrophages upon intratracheal instillation of mycolic acid containing liposomes is indicative of a possible mycolic acid induced suppression of Th2-mediated eosinophilia. In a mouse model of allergic asthma this is mediated by a mechanism involving antigen presentation by these foam cells and the activity of regulatory T-lymphocytes (Korf et al, Am. J. Respir. Crit. Care Med., 174, 1-9, 2006).
We verified the induction of cholesterol-loaded cells in the lungs of C57BL/6 mice that received a single dose of liposomes carrying compounds a week earlier. The mice were treated with empty liposomes, liposomes containing control compound 1, liposomes containing compound 2 and liposomes containing compound 4. Frozen lung sections were stained with the lipophilic Oil Red O dye (ORO) thereby visualising foam cell intracellular lipid vesicles and counterstained with haematoxylin. […]

For series [2], the system named is C547BL/6 mice. Put plainly: Inflammatory cell infiltration to the airways (BAL, flowcytometry). The class given is in vivo. Conditions: 48 hours after intratracheal liposomes; BAL-fluid; compared to empty liposome treatment. How it is done:
as §1
In order to be considered safe for therapeutic administration, compounds should preferably cause as little local inflammation or resulting tissue changes as possible.
After 48 hours, mice were sacrificed and a broncho-alveolar lavage (BAL) was performed to measure the airway cell types and numbers by flowcytometry. Increased cell numbers and the appearance of granulocytes (mainly neutrophils) in the BAL-fluid are indicative for cell recruitment to the airways as result of an inflammatory reaction.

Series [3] has as its system C547BL/6 mice. Description: Histo-pathological examination of lung tissue (haematoxylin and eosin, score 0-5). Conditions: 48 hours after intratracheal liposomes; lavaged lungs, double-blinded pathologist score; FIG. 4. The class given is in vivo. The source says: Lavaged lungs were ectomised to allow for histo-pathological examination of the lung tissue. A haematoxylin and eosin staining of the paraffin lung sections was followed by a thorough examination by a skilled pathologist who scored the sections according to the following criteria in a double-blinded manner:
1=a minority of the bronchi are surrounded by some infiltrated inflammatory cells
2=the majority of the bronchi are surrounded by some infiltrated inflammatory cells
3=dispersed are some heavy infiltrates of neutrophils and eosinophils
4=a lot of infiltrating neutrophils and eosinophils throughout the entire lung section
5=same as 4 with additionally signs of airway remodelling e.g. basal membrane thickening, mucus overproduction and/or smooth muscle cell hyperplasia

In series [4] the test system is Th2-driven allergic airway inflammation. Description: Suppression of allergic airway inflammation in a mouse asthma model (OVA/Alum immunised, OVA-aerosol challenge). The class given is in vivo. Conditions: liposomes intratracheally to OVA/Alum immunised mice, OVA-aerosol challenge after 7 days; flowcytometry (CCR3+); vs empty liposomes; FIG. 5. How it is done:
as §1
Liposome containing synthetic mycolic acids compounds 5, 6 and 7 were administered intratracheally to mice which had been immunised for the experimental allergen chicken egg ovalbumin (OVA) adjuvanted with Alum (aluminium hydroxide). Following 7 days, the mice were challenged with OVA-aerosol. Th2-driven allergic airway inflammation was apparent in empty liposomes treated animals, from high eosinophil counts in the BAL-fluid by flowcytometry (CCR3^+).

The subject of series [5] is CD4+ T-helper (Th) lymphocytes. Put plainly: mRNA expression patterns by RT-qPCR of CD4+ T-helper lymphocytes from asthmatic mouse lungs. The class given is in vivo. Conditions: compounds in liposomes; with reference to empty liposome treatment; FIG. 7. The source says: From the previous examples it can be concluded that the synthetic mycolic acids have a significant effect on immune reactivity. The nature of the immune modification appears to be structure dependent. This can be seen from examination of mRNA expression patterns by RT-qPCR of CD4+ T-helper (Th) lymphocytes, isolated from asthmatic mouse lungs after treatment with compounds 6, 8 and 9 formulated into liposomes. The results are shown in FIGS. 7a to e with reference to an empty liposome treatment. All of the synthetic mycolic acid isomers repressed the transcription of the Th2 effector cytokine IL-4 to some degree.
A general note: Real-time PCR tracks product formation cycle by cycle.

By melting point is commonly meant the temperature, or range, at which the solid turns liquid. `CCCCCCCCCCCCCCCCCCCCCCCC[C@@H](C(=O)O)[C@H](O)CCCCCCCCCCCCCCC[C@@H]1C[C@@H]1CCCCCCCCCCCCCCCCCCC(=O)[C@@H](C)CCCCCCCCCCCCCCCCCC` (single isomer, unassigned) [Example 3] yielded a melting point of 66 to 68 °C.
As for `CCCCCCCCCCCCCCCCCCCCCCCC[C@@H](C(=O)O)[C@H](O)CCCCCCCCCCC[C@H]1CC1CCCCCCCCCCCCCC[C@H]1C[C@H]1CCCCCCCCCCCCCCCCCCCC` (some centres unmarked) [Compound 2], the “scores of ORO positive cells/microscopic field” value in series [1] is reported as “significantly higher scores”.
As for `CCCCCCCCCCCCCCCCCCCC[C@H]1C[C@H]1CCCCCCCCCCCCCCC1C[C@H]1CCCCCCCCCCC[C@@H](O)[C@@H](CC)C(=O)O` (some centres unmarked) [Compound 3], the “inflammatory cell infiltration to the airways” value in series [2] is reported as “do not”. In series [3], the lung tissue changes result was “did not cause any significant lung tissue changes”.
Turning to `CCCCCCCCCCCCCCCCCCCCCCCC[C@@H](C(=O)O)[C@H](O)CCCCCCCCCCCCCCCC[C@H]1C[C@@H]1[C@@H](C)CCCCCCCCCCCCCCCCCCC(=O)C(C)CCCCCCCCCCCCCCCCCC` (some centres unmarked) [Compound 4], the “scores of ORO positive cells/microscopic field” value in series [1] is listed as “significantly higher scores”. Moreover, the “inflammatory cell infiltration to the airways” value in series [2] is recorded as “do not”. Further, in series [3], the lung tissue changes entry was “did not cause any significant lung tissue changes”.
`CCCCCCCCCCCCCCCCCCCCCCCC[C@@H](C(=O)O)[C@H](O)CCCCCCCCCCCCCCCCC[C@@H]1CC1CCCCCCCCCCCCCCCC[C@@H](OC)[C@@H](C)CCCCCCCCCCCCCCCCCC` (some centres unmarked) [Compound 6]: the “eosinophil count in the BAL-fluid” value in series [4] is given as “at least two-fold decreased”. Besides, in series [5], the “FoxP3 (regulatory T-cell) response” value is “especially good in suppressing”, the “Gata-3 transcription (Th2)” value is given as “especially good in suppressing” and the “IL-4 transcription (Th2 effector cytokine)” value is reported as “especially good in suppressing”.
